Reference: US4820695A, “C-20-dihydro-deoxy-(cyclic amino)-derivatives of macrolide antibiotics” (priority 1987, dated 1989)
In brackets after ≈: the same amount, converted by molar mass. Where two headings read alike, the source gives them in different places.

Columns and labels:
Escherichia coli TEM = assay: MIC, standard agar-dilution assay (Table IX); format: cell-based; details: read-out: MIC
Staphylococcus aureus = assay: MIC, broth-dilution microtiter test (Table X); format: cell-based; details: read-out: MIC
Excerpt: (§1) The MIC's in Table X were obtained using conventional broth-dilution microtiter tests.

[1] = system: Mycoplasma hyopneumoniae S5972; assay: MIC, broth-dilution microtiter test (Table X); format: cell-based; details: Mesomycoplasma hyopneumoniae, read-out: MIC
Excerpt: as §1

Mycoplasma hyorhinis 29E = assay: MIC, broth-dilution microtiter test (Table X); format: cell-based; details: read-out: MIC
Excerpt: as §1

[2] = system: Pasteurella multocida 60A; assay: MIC, broth-dilution microtiter test (Table X); format: cell-based; details: Avian isolate, read-out: MIC
Excerpt: as §1

[3] = system: Pasteurella multocida 17E; assay: MIC, broth-dilution microtiter test (Table X); format: cell-based; details: Bovine isolate, read-out: MIC
Excerpt: as §1

[4] = system: Mycoplasma gallisepticum 29C; assay: MIC, broth-dilution microtiter test (Table X); format: cell-based; details: Mycoplasmoides gallisepticum, read-out: MIC
Excerpt: as §1

[5] = system: Pasteurella hemolytica 22C; assay: MIC, broth-dilution microtiter test (Table X); format: cell-based; details: read-out: MIC
Excerpt: as §1

Mycoplasma synoviae 40A = assay: MIC, broth-dilution microtiter test (Table X); format: cell-based; details: Mycoplasmopsis synoviae, read-out: MIC
Excerpt: as §1

Streptococcus sp. 19F = assay: MIC, broth-dilution microtiter test (Table X); format: cell-based; details: read-out: MIC
Excerpt: as §1

[6] = system: Haemophilus influenzae 76; assay: MIC, standard agar-dilution assay (Table IX); format: cell-based; details: Haemophilus influenzae 76, Ampicillin-resistant strain, read-out: MIC
[7] = system: Streptococcus Group D X66; assay: MIC, standard agar-dilution assay (Table IX); format: cell-based; details: read-out: MIC
[8] = Titratable groups in 66% aqueous DMF (Tables XIV-XVI); format: physicochemical
Excerpt: ^c Run in 66% aqueous DMF
^d Run in 66% aqueous DMF

Escherichia coli N10 = assay: MIC, standard agar-dilution assay (Table IX); format: cell-based; details: read-out: MIC
Escherichia coli EC14 = assay: MIC, standard agar-dilution assay (Table IX); format: cell-based; details: read-out: MIC
[9] = system: Streptococcus Group D 2041; assay: MIC, standard agar-dilution assay (Table IX); format: cell-based; details: GROUPD2041, read-out: MIC
[10] = system: Staphylococcus aureus S13E; assay: MIC, standard agar-dilution assay (Table IX); format: cell-based; details: Staphylococcus aureus, S13E
Klebsiella X26 = assay: MIC, standard agar-dilution assay (Table IX); format: cell-based; details: read-out: MIC
[11] = system: Streptococcus pneumoniae Park I; assay: MIC, standard agar-dilution assay (Table IX); format: cell-based; details: Streptococcus pneumoniae Park I; agar-dilution; read-out: MIC
[12] = system: Streptococcus pyogenes C203; assay: ED50 in mice experimentally infected with S. pyogenes C203 (Table XI); format: in vivo; details: Streptococcus pyogenes, doses given 1 and 4 hours postinfection, read-out: ED50
Summary of the method: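 Mice infected with S. pyogenes C203 received two doses of compound, 1 and 4 h post-infection. ED50 is the dose in mg/kg (per dose, ×2) protecting 50% of animals.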

Pasteurella multocida [13] = assay: Pasteurella infection in one-day-old chicks, medicated drinking water (Table XIII); format: in vivo; details: Administered in the available drinking water at 2 g/gal
Protocol: Many of the C-20 modified derivatives of this invention have also shown in vivo antibacterial activity against infections induced by gram-negative bacteria. Tables XII and XIII summarize the results of tests in which illustrative compounds were evaluated against a Pasteurella infection in one-day-old chicks. The compounds were administered parenterally or orally after challenge of the chicks with Pasteurella multocida (0.1 ml of a 10^-4 dilution of a twenty-hour tryptose broth culture of an avian P. multocida given subcutaneously). In these tests, unless indicated otherwise, all non-medicated infected chicks died within 24 hours of Pasteurella challenge. In the tests summarized in Table XII, the compounds were administered by subcutaneous injection at a dosage of 30 mg/kg, 1 and 4 hours post-challenge of the chicks with P. multocida. In the tests summarized in Table XIII the compounds were administered in medicated drinking water (at a level of 2 g/gal) available from 4 to 20 hours prior to challenge of the chicks with P. multocida and during the 3 -day test period.
^a Administered in the available drinking water at a concentration of […]

[14] = system: Staphylococcus epidermidis 222; assay: MIC, standard agar-dilution assay (Table IX); format: cell-based; details: read-out: MIC
[15] = system: Staphylococcus aureus X400; assay: MIC, standard agar-dilution assay (Table IX); format: cell-based; details: Staphylococcus aureus X400, Methicillin-resistant strain, read-out: MIC
[16] = system: Streptococcus pyogenes C203; assay: MIC, standard agar-dilution assay (Table IX); format: cell-based; details: read-out: MIC
Staphyloccus aureus X1.1 = assay: MIC, standard agar-dilution assay (Table IX); format: cell-based, Staphylococcus aureus; details: Staphylococcus aureus, read-out: MIC
[17] = system: Staphylococcus aureus V41; assay: MIC, standard agar-dilution assay (Table IX); format: cell-based; details: Staphylococcus aureus V41, Penicillin-resistant strain, read-out: MIC
[18] = system: Haemophilus influenzae C.L.; assay: MIC, standard agar-dilution assay (Table IX); format: cell-based; details: Ampicillin-sensitive strain, read-out: MIC
Pasteurella multocida [19] = assay: Pasteurella infection in one-day-old chicks, subcutaneous administration (Table XII); format: in vivo; details: Administered subcutaneously, 30 mg/kg × 2, 1 and 4 hours post-challenge
Summary of the method: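 One-day-old chicks were challenged subcutaneously with 0.1 ml of a 10^-4 dilution of a 20-h tryptose broth culture of avian P. multocida. Compounds were then given by subcutaneous injection at 30 mg/kg, at 1 and 4 hours post-challenge.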

[20] = system: Staphylococcus epidermidis EPI1; assay: MIC, standard agar-dilution assay (Table IX); format: cell-based; details: Staphylococcus epidermidis EPI1; agar-dilution; read-out: MIC
[21] = system: Staphylococcus aureus 19C; assay: MIC, broth-dilution microtiter test (Table X); format: cell-based
Excerpt: as §1

[22] = Titratable groups (first value)

| SMILES | MIC (Escherichia coli TEM) | MIC (Staphylococcus aureus) | MIC [1] | MIC (Mycoplasma hyorhinis 29E) | MIC [2] | MIC [3] | MIC [4] | MIC [5] | MIC (Mycoplasma synoviae 40A) | MIC (Streptococcus sp. 19F) | MIC [6] | MIC [7] | pKa ([8]; Titratable groups) | pKa [8, 22] | MIC (Escherichia coli N10) | MIC (Escherichia coli EC14) | MIC [9] | MIC [10] | ED50 ([12]; C203, Oral) | ED50 ([12]; C203, sc, Subcutaneous) | also measured |
| --- | --- | --- | --- | --- | --- | --- | --- | --- | --- | --- | --- | --- | --- | --- | --- | --- | --- | --- | --- | --- | --- |
| CCC1OC(=O)CC(O)C(C)C(OC2OC(C)C(O)C(N(C)C)C2O)C(CCN2CCCCCCCC2)CC(C)C(=O)C=CC(C)=CC1COC1OC(C)C(O)C(OC)C1OC (stereo not drawn) [Compound D7, 20-DH-DO-20-(octahydro-1H-azonin-1-yl)desmycosin] | 16 µg/mL (≈ 18.1 µM) | 1.56 µg/mL (≈ 1.77 µM) | 1.56 µg/mL (≈ 1.77 µM) | 25 µg/mL (≈ 28.3 µM) | 6.25 µg/mL (≈ 7.08 µM) | 6.25 µg/mL (≈ 7.08 µM) | 0.39 µg/mL (≈ 0.442 µM) | 3.12 µg/mL (≈ 3.53 µM) | 0.39 µg/mL (≈ 0.442 µM) | 3.12 µg/mL (≈ 3.53 µM) | 16 µg/mL (≈ 18.1 µM) | 4 µg/mL (≈ 4.53 µM) | 9 | 7.9 | 64 µg/mL (≈ 72.5 µM) | 64 µg/mL (≈ 72.5 µM) | 8 µg/mL (≈ 9.06 µM) | 0.5 µg/mL (≈ 0.566 µM) | 12 mg/kg | 1.6 mg/kg | MIC (Klebsiella X26): > 128 µg/mL; MIC [11]: 0.5 µg/mL (≈ 0.566 µM); Number of Deaths/Number Treated (Pasteurella multocida [13]): 2/10; MIC [14]: 0.25 µg/mL (≈ 0.283 µM); MIC [15]: 0.5 µg/mL (≈ 0.566 µM); MIC [16]: 0.06 µg/mL (≈ 0.0679 µM); MIC (Staphyloccus aureus X1.1): 0.5 µg/mL (≈ 0.566 µM); MIC [17]: 0.5 µg/mL (≈ 0.566 µM); MIC [18]: 16 µg/mL (≈ 18.1 µM); Number of Deaths/Number Treated (Pasteurella multocida [19]): 3/10; MIC [20]: 0.5 µg/mL (≈ 0.566 µM) |
| CCC1OC(=O)CC(O)C(C)C(OC2OC(C)C(O)C(N(C)C)C2O)C(CCN2CCCC23CCCCC3)CC(C)C(=O)C=CC(C)=CC1COC1OC(C)C(O)C(OC)C1OC (stereo not drawn) [Compound D19, 20-DH-DO-20-[1-Azaspiro[4.5]decan-1-yl]desmycosin] | 32 µg/mL (≈ 35.7 µM) | 0.78 µg/mL (≈ 0.871 µM) | 3.12 µg/mL (≈ 3.49 µM) | > 50 µg/mL | 3.12 µg/mL (≈ 3.49 µM) | 3.12 µg/mL (≈ 3.49 µM) | 1.56 µg/mL (≈ 1.74 µM) | 3.12 µg/mL (≈ 3.49 µM) | 0.39 µg/mL (≈ 0.436 µM) | 3.12 µg/mL (≈ 3.49 µM) | 16 µg/mL (≈ 17.9 µM) | 16 µg/mL (≈ 17.9 µM) | 9.8 | 7.9 | 128 µg/mL (≈ 143 µM) | 128 µg/mL (≈ 143 µM) | 16 µg/mL (≈ 17.9 µM) | 1 µg/mL (≈ 1.12 µM) | 46 mg/kg | 2.9 mg/kg | MIC (Klebsiella X26): 32 µg/mL (≈ 35.7 µM); MIC [11]: 0.25 µg/mL (≈ 0.279 µM); Number of Deaths/Number Treated (Pasteurella multocida [13]): 3/10; MIC [14]: 0.25 µg/mL (≈ 0.279 µM); MIC [15]: 1 µg/mL (≈ 1.12 µM); MIC [16]: 0.5 µg/mL (≈ 0.559 µM); MIC (Staphyloccus aureus X1.1): 1 µg/mL (≈ 1.12 µM); MIC [17]: 1 µg/mL (≈ 1.12 µM); MIC [18]: 16 µg/mL (≈ 17.9 µM); Number of Deaths/Number Treated (Pasteurella multocida [19]): 0/10; MIC [20]: 1 µg/mL (≈ 1.12 µM) |
| CCC1OC(=O)CC(O)C(C)C(OC2OC(C)C(O)C(N(C)C)C2O)C(CCN2CCC3(CCCCC3)CC2)CC(C)C(=O)C=CC(C)=CC1COC1OC(C)C(O)C(OC)C1OC (stereo not drawn) [Compound D43] |  |  | 0.78 µg/mL (≈ 0.858 µM) | 25 µg/mL (≈ 27.5 µM) | 6.25 µg/mL (≈ 6.87 µM) | 6.25 µg/mL (≈ 6.87 µM) | 0.195 µg/mL (≈ 0.214 µM) | 6.25 µg/mL (≈ 6.87 µM) | < 0.048 µg/mL | 1.56 µg/mL (≈ 1.72 µM) |  |  |  |  |  |  |  |  | 8 mg/kg | 1.34 mg/kg | MIC [21]: 1.56 µg/mL (≈ 1.72 µM) |
| CCC1OC(=O)CC(O)C(C)C(OC2OC(C)C(O)C(N(C)C)C2O)C(CCN2CCC3CCCCC32)CC(C)C(=O)C=CC(C)=CC1COC1OC(C)C(O)C(OC)C1OC (stereo not drawn) [Compound D44] |  |  | 0.39 µg/mL (≈ 0.443 µM) | 50 µg/mL (≈ 56.7 µM) | 12.5 µg/mL (≈ 14.2 µM) | 12.5 µg/mL (≈ 14.2 µM) | 1.56 µg/mL (≈ 1.77 µM) | 12.5 µg/mL (≈ 14.2 µM) | 0.097 µg/mL (≈ 0.11 µM) | 1.56 µg/mL (≈ 1.77 µM) |  |  |  |  |  |  |  |  | 37.9 mg/kg | 0.69 mg/kg | MIC [21]: 3.12 µg/mL (≈ 3.54 µM) |
